Assay results published in ChEMBL document CHEMBL1201862, “PubChem BioAssay data set” (2004).
The source made the active and inactive calls.

Legend:
cells = details: HEK293
Genome polyprotein = Genome polyprotein (dengue virus type 2, UniProt P29990); assay: Dengue-2 NS5 methyltransferase inhibitors, primary screen, biochemical, confirmation dose response (AID 588689); type: functional
[1] = target: Mitochondrial peptide methionine sulfoxide reductase (Bos taurus, UniProt P54149); assay: Absorbance-based biochemical high throughput dose response assay for activators of Methionine sulfoxide reductase A (MsrA).; type: functional
[2] = target: T1, Replicative DNA helicase DnaB (Mycobacterium tuberculosis, UniProt P9WMR3); assay: DnaB intein splicing inhibitors, dose response, biochemical, cell-free fluorescence (AID 449749); type: functional
T1 sequence (P9WMR3 whole entry): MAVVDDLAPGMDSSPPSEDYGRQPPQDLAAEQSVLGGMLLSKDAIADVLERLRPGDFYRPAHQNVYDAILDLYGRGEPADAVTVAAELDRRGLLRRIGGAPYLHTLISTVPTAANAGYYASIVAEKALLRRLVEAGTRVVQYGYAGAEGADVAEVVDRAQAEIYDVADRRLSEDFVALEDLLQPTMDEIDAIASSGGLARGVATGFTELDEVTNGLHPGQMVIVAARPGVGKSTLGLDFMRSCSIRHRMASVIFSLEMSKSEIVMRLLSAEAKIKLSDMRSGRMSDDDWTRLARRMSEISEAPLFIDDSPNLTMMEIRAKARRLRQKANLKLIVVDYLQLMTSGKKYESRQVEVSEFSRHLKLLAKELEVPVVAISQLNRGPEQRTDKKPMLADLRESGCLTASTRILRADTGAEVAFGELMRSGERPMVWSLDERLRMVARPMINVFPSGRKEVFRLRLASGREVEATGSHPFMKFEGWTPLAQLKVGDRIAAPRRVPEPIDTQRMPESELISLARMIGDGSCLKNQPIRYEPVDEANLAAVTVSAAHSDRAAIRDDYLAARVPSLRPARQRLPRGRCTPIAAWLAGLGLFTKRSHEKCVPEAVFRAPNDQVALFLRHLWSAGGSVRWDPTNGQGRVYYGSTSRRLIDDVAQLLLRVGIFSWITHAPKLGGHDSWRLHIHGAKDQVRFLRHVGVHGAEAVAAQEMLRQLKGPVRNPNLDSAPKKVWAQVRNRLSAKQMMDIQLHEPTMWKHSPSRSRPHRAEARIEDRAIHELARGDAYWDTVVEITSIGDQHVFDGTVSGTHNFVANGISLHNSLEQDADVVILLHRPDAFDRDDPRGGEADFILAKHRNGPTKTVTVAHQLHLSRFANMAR

Caspase-6 = Caspase-6 (Homo sapiens, UniProt P55212); assay: human caspase-6 inhibitors, dose response, biochemical, VEID-R110 fluorescence, cherry-pick (AID 720632)
Protein RecA = target: T2, Protein RecA (Mycobacterium tuberculosis, UniProt P9WHJ3); assay: Fluorescence Cell-Free Homogeneous Dose Retest to Identify Inhibitors of RecA-Intein Splicing Activity. [Related pubchem assays (depositor defined):AID2097, AID2223, AID489010, AID492950]; type: functional
T2 sequence (P9WHJ3 whole entry): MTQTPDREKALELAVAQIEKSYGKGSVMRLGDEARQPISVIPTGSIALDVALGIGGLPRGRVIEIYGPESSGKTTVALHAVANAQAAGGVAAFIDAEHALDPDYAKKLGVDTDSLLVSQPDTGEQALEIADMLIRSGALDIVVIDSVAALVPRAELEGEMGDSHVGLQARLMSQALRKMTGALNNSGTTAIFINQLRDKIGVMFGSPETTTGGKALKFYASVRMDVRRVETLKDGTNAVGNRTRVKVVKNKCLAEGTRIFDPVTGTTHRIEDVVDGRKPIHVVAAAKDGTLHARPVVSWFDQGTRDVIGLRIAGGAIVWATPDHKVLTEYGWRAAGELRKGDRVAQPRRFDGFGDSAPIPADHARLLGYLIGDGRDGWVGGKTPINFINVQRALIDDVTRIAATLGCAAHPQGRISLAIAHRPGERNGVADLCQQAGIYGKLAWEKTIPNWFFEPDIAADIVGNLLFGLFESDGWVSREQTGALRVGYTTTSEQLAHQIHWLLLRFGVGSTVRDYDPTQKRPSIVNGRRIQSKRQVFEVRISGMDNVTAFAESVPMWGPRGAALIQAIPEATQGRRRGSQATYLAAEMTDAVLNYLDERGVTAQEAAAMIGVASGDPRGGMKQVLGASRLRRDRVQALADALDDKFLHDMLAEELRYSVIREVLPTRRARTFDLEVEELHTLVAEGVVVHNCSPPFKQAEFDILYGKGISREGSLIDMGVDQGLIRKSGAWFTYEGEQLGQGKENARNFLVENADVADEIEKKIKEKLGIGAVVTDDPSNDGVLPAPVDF

[3] = target: Matrix metalloproteinase-14 (Homo sapiens, UniProt P50281); assay: Dose Response confirmation of uHTS hits for a small molecule inhibitors of MT1-MMP activation in a fluorescence assay set 2.; type: functional
[4] = LGR2 antagonists, dose response, cell-based, HEK293, CRE-luciferase reporter, cherry pick (AID 743342); type: functional
[5] = MC4R antagonists, dose response, counter-screen for LGR2 antagonist project, cell-based, plate reader, cherry pick (AID 743444); type: functional;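 note: transfected HEK 293 cells stimulated with alpha-MSH peptide; potency of inhibitors of the alpha-MSH evoked signal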
[6] = HEK293 cell cytotoxicity, dose response, cytotoxicity control, plate reader, cherry-picked samples (AID 743446); type: functional, cell-based
[7] = A549 cell cytotoxicity, dose response, cytotoxicity control, plate reader, cherry-pick, antagonist series (AID 743412); type: functional, cell-based
[8] = target: Oxysterols receptor LXR-beta (Homo sapiens, UniProt P55055); type: functional, cell-based;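 note: agonist activity at LXR measured by a cell-based luminescence readout across a dose range, run as a counterscreen for daf-12 agonists; HEK293 cells with Gal4-LXR fusion and GAL4-driven luciferase reporter; potency for activation of Gal4-LXR reporter so compounds are agonists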
[9] = growth inhibition of replicating M. tuberculosis, dose response, counter-screen, dry powder, IC90 (AID 651617); type: functional; details: Mycobacterium tuberculosis
[10] = inhibitors of non-replicating M. tuberculosis, dose response, luciferase, dry powder (AID 651620); type: functional; details: Mycobacterium tuberculosis
[11] = inhibitors of non-replicating M. tuberculosis, dose response, luciferase, dry powder (AID 651619); type: functional; details: Mycobacterium tuberculosis
[12] = target: Fructose-bisphosphate aldolase (Mycobacterium tuberculosis, UniProt P9WQA3); assay: Fluorescence-based biochemical high throughput dose response assay for inhibitors of the fructose-bisphosphate aldolase (FBA) of M. tuberculosis.; type: functional
[13] = HepG2 cell cytotoxicity, dose response, cytotoxicity control, plate reader, cherry-pick, antagonist series (AID 743416); type: functional, cell-based
[14] = HEK293T cytotoxicity, dose response, cytotoxicity control for miR-122 modulator project, cell-based, inhibitor set, cherry-pick, set 2 (AID 720697); type: functional

Sequence of Mitochondrial peptide methionine sulfoxide reductase (P54149 whole entry): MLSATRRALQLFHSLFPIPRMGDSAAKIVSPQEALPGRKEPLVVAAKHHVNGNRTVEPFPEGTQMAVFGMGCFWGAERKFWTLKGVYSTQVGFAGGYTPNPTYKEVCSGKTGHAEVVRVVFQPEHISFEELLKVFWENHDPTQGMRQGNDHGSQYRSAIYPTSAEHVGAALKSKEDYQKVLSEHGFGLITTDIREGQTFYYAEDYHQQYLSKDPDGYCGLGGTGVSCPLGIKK
Sequence of Genome polyprotein (P29990 2492-3391 limits assumed): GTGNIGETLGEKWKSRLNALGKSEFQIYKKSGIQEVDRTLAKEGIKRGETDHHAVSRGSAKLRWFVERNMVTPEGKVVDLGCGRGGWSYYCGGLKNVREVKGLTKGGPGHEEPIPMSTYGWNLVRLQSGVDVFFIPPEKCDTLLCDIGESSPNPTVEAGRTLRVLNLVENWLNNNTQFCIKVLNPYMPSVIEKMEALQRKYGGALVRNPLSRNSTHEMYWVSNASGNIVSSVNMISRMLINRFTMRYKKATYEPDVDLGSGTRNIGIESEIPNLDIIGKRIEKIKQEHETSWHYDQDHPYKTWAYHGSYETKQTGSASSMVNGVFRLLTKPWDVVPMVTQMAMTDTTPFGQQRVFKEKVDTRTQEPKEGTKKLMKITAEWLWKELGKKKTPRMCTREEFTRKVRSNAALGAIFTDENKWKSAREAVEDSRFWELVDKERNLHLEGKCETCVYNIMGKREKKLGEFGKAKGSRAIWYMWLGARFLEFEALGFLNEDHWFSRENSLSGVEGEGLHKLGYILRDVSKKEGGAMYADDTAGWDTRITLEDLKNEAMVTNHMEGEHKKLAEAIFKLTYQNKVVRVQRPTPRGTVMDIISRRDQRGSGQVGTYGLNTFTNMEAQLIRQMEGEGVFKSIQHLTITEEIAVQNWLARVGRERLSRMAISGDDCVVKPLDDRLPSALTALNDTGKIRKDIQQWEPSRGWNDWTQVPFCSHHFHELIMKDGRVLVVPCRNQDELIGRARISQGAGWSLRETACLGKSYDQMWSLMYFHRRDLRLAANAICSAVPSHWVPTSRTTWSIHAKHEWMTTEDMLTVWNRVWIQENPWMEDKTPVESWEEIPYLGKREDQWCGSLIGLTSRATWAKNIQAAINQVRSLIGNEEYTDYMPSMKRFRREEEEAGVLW
Sequence of Oxysterols receptor LXR-beta (P55055 whole entry, the tested form may be a part): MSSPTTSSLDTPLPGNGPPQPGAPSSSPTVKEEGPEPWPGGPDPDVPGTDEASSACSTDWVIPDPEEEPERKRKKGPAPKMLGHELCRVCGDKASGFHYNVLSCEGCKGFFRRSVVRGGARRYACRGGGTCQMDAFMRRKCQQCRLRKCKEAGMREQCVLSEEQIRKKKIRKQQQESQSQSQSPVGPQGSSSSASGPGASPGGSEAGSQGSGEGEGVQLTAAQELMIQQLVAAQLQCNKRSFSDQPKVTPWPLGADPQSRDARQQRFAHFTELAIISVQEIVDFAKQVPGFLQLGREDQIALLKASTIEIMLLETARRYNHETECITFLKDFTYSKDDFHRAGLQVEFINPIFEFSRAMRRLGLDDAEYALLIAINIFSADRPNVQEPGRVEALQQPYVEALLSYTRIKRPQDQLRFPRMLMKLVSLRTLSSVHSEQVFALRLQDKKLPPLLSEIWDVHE
Sequence of Caspase-6 (P55212 24-179 limits assumed): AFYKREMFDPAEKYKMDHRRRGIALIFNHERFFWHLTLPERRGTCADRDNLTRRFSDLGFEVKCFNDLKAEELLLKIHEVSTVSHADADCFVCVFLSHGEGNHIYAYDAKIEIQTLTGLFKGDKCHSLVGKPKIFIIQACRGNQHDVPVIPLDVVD
Sequence of Caspase-6 (P55212 194-293 limits assumed): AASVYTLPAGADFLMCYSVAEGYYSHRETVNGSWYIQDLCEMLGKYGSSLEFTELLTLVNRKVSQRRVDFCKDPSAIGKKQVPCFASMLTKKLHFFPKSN
Sequence of Fructose-bisphosphate aldolase (P9WQA3 whole entry): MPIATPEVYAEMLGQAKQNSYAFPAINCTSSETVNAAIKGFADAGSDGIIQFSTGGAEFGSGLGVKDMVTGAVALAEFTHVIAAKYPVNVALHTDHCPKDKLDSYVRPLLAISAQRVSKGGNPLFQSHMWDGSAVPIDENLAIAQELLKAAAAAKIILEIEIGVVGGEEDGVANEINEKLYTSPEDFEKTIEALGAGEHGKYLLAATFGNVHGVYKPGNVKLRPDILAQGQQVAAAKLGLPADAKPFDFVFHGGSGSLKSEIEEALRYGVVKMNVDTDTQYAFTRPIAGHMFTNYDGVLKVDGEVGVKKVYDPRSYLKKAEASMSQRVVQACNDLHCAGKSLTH

## CNC(=O)c1ccc(NC(=O)c2cccc(C(F)(F)F)c2)cc1
cells
  AC50: 49.8 µM (active)

## C[n+]1c2ccccc2nc2ccc(NCCO)cc21
Genome polyprotein
  IC50: 18.6 µM (active)
[1]
  EC50: 3.53 µM (active)
[2]
  AC50: 19.9 µM (active)
Caspase-6
  AC50: 3.35 µM (active)
Protein RecA
  EC50: 2.38 µM (active)
[3]
  IC50: 10.5 µM (active)

## COc1ccc(S(=O)(=O)N(C)C[C@@H]2OCCCC[C@H](C)Oc3ccc(NS(=O)(=O)c4ccc(F)cc4)cc3C(=O)N([C@@H](C)CO)C[C@@H]2C)cc1
[4]
  AC50: 58.8 µM (active)
[5]
  AC50: 42.7 µM (active)
[6]
  AC50: > 52 µM (inactive)
[7]
  AC50: 26 µM (active)

## Cc1ccc(-c2csc(NC(=O)/C=C/c3ccco3)c2C(=O)O)cc1
[8]
  EC50: > 67.6 µM (inactive)

## [N-]=[N+]=NCCOCCNC(=O)CCCOc1ccc(CSc2nnc(-c3ccc(F)cc3)o2)nc1
[9]
  IC90: 250 µM (active)
[10]
  IC90: 16 µM (active)
[11]
  IC90: 16 µM (active)

## CCc1c(C)c2ccc(OCC(N)=O)cc2oc1=O
[12]
  IC50: > 0.37 µM (active)

## COc1ccc(S(=O)(=O)N2CCOCC2)cc1NC(=O)COc1ccc(C)cc1
[6]
  AC50: 28.1 µM (active)
[13]
  AC50: 8.95 µM (active)
[7]
  AC50: 8.06 µM (active)

## CCCC(=O)Nc1ccc2c(c1)C(=O)N(C)[C@@H]1CC[C@H](CC(=O)NCC(F)(F)F)O[C@H]1CO2
[14]
  AC50: 2.15 µM (active)
